From patent US12116358B2, “Substituted indoles and methods of use thereof” (EPIZYME, INC., priority 2018, dated 2024)
Where two headings read alike, the source gives them in different places.

Tests used:
SETD2(1434-1711) = target: T1, SETD2(1434-1711) (Homo sapiens, UniProt Q9BYW2); assay: SETD2 (1434-1711) assay; format: biochemical; settings: read-out: SETD2 (1434-1711)
T1 construct: SETD2 (1434-1711) Assay; catalogue N/A
T1 sequence (Q9BYW2 1434-1711): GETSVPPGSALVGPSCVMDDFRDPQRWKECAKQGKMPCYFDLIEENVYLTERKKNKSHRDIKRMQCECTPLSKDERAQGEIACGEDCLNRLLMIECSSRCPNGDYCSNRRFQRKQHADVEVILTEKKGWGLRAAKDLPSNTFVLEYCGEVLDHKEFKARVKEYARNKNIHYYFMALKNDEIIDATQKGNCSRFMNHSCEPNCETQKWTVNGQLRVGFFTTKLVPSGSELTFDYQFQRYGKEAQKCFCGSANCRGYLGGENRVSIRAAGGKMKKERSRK

H3K36me3 in A549 cells = assay: In-Cell Western (ICW) assay of SETD2 inhibitors (A549 assay); format: cell-based, human; settings: A549 cells, read-out: SETD2 A549
How it was run: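 A549 cells seeded at 4,000/well onto compound and incubated 3 days at 37° C. Methanol-fixed cells stained overnight at 4° C with anti-H3K36me3 (1:1000), then IRDye 800CW secondary with DRAQ5 DNA counterstain. Plates read by Licor imaging at 700 and 800 channels.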

SMILES | IC50 (SETD2(1434-1711)) [µM] | IC50 (H3K36me3 in A549 cells; Homo sapiens) [µM] | IC50 (H3K36me3 in A549 cells) [µM]
Cc1cccnc1C(Cc1ccccc1)NC(=O)c1cc2cccc(C)c2[nH]1 (stereo not shown) [compound 408] | 0.4 | 2.9 | –
Cc1cc(C(=O)NC2CCN(C)CC2)cnc1C(NC(=O)c1cc2c(F)ccc(C)c2[nH]1)C1CC1 (stereo not shown) [compound 412] | 0.1 | – | 3.1
Cc1cc(CCN2CCN(C)CC2)cnc1C(CCc1ccccc1)NC(=O)c1cc2c(F)ccc(C)c2[nH]1 (stereo not shown) [compound 414] | 0.08 | – | 3.2
Cc1cccc2cc(C(=O)NC(c3ncccc3Cl)C3CC3)[nH]c12 (stereo not shown) [compound 419] | 0.8 | 3.4 | –
Cc1cccnc1C(CCC(=O)N1CCOCC1)NC(=O)c1cc2cccc(C)c2[nH]1 (stereo not shown) [compound 420] | 2.4 | – | 3.6
Cc1cc(C2CCC(NC(=O)Cc3cccnc3)CC2)cnc1C(NC(=O)c1cc2cccc(C)c2[nH]1)C1CC1 (stereo not shown) [compound 423] | 0.6 | – | 3.8
Cc1cc(-c2ccc(N)nc2)cnc1C(NC(=O)c1cc2cccc(C)c2[nH]1)C1CC1 (stereo not shown) [compound 426] | 0.4 | – | 3.9
Cc1cccc2cc(C(=O)Nc3ccc4ncc(CN(C)C)n4c3)[nH]c12 [compound 427] | 0.4 | – | 4
Cc1cccc2cc(C(=O)Nc3cccc(N4CCN(S(=O)(=O)C5CCC(N)CC5)CC4)c3)[nH]c12 (stereo not shown) [compound 429] | 0.1 | 4.3 | –
Cc1cc(OCC(O)CNCc2cccnc2)cnc1C(NC(=O)c1cc2cccc(C)c2[nH]1)C1CC1 (stereo not shown) [compound 430] | 0.6 | – | 4.4
C=Cc1ccc(C)c2[nH]c(C(=O)NC(CCC(=O)N3CCOCC3)c3ncccc3C)cc12 (stereo not shown) [compound 431] | 2.1 | – | 4.4
Cc1c(C#N)ccnc1C(NC(=O)c1cc2c(F)ccc(C)c2[nH]1)C1CC1 (stereo not shown) [compound 432] | 0.7 | 4.5 | –
Cc1cccnc1C(CCC(=O)N1CCC(O)CC1)NC(=O)c1cc2cccc(C)c2[nH]1 (stereo not shown) [compound 434] | 4.3 | – | 4.6
Cc1cc(CCN2CCN(C)CC2)cnc1C(NC(=O)c1cc2cccc(C)c2[nH]1)C1CC1 (stereo not shown) [compound 435] | 0.7 | 4.7 | –
Cc1cccc2cc(C(=O)Nc3cccc(N4CCC(NC(=O)CN)CC4)c3)[nH]c12 [compound 439] | 0.2 | – | 5
Cc1cc(N2CCN(CCCc3cccnc3)CC2)cnc1C(NC(=O)c1cc2cccc(C)c2[nH]1)C1CC1 (stereo not shown) [compound 440] | 0.8 | 5 | –
Cc1cc(CC(=O)N2CCN(C)CC2)cnc1C(NC(=O)c1cc2cccc(C)c2[nH]1)C1CC1 (stereo not shown) [compound 441] | 4.4 | – | 5.1
Cc1ccc(CN2CCOCC2)cc1NC(=O)c1cc2cccc(C)c2[nH]1 [compound 442] | 2.1 | 5.1 | –

SMILES | IC50 (SETD2(1434-1711)) [µM] | IC50 (H3K36me3 in A549 cells; Homo sapiens) [µM] | IC50 (H3K36me3 in A549 cells) [µM]
Cc1cccc2cc(C(=O)Nc3cccc(N4CCN(S(=O)(=O)CCN)CC4)n3)[nH]c12 [compound 443] | 0.6 | 5.1 | –
Cc1cc(-c2ncc[nH]2)cnc1C(NC(=O)c1cc2cccc(C)c2[nH]1)C1CC1 (stereo not shown) [compound 445] | 1.4 | 5.2 | –
Cc1cccnc1C(CCC(=O)N(C)C)NC(=O)c1cc2cccc(C)c2[nH]1 (stereo not shown) [compound 446] | 6.3 | 5.4 | –
Cc1cc(CCNC(=O)Cc2cccnc2)cnc1C(NC(=O)c1cc2cccc(C)c2[nH]1)C1CC1 (stereo not shown) [compound 447] | 2.8 | – | 5.5
Cc1cccc2cc(C(=O)Nc3ccc4ccc(C(=O)N5CCN(C)CC5)cc4c3)[nH]c12 [compound 448] | 0.9 | – | 5.5
Cc1cccc2cc(C(=O)Nc3cccc(N4CCN(S(=O)(=O)CCN)CC4)c3)[nH]c12 [compound 449] | 0.2 | 5.5 | –
Cc1cc(C(=O)N[C@H]2CC[C@H]2N)cnc1C(NC(=O)c1cc2cccc(C)c2[nH]1)C1CC1 (stereo partly shown) [compound 451] | 0.4 | 5.6 | –
Cc1cccc2cc(C(=O)Nc3ccc4ccc(CN5CCN(C)CC5)cc4c3)[nH]c12 [compound 453] | 0.7 | 5.8 | –
Cc1cc(C(=O)N[C@@H]2CC[C@H]2N)cnc1C(NC(=O)c1cc2cccc(C)c2[nH]1)C1CC1 (stereo partly shown) [compound 455] | 0.4 | 5.9 | –
Cc1ccc(NC(=O)c2cc3cccc(C)c3[nH]2)cc1CN1CCOCC1 [compound 456] | 1.4 | 6.1 | –
Cc1cccnc1C(CCC(=O)N1CCn2cncc2C1)NC(=O)c1cc2cccc(C)c2[nH]1 (stereo not shown) [compound 460] | 4.5 | 6.2 | –
COc1cccc(CNCC(O)COc2cnc(C(NC(=O)c3cc4cccc(C)c4[nH]3)C3CC3)c(C)c2)c1 (stereo not shown) [compound 461] | 0.5 | – | 6.3
CCc1cccc2cc(C(=O)NC(CCC(=O)N3CCOCC3)c3ncccc3C)[nH]c12 (stereo not shown) [compound 464] | 8.4 | – | 6.6
Cc1cccc2cc(C(=O)Nc3ccc4cnc(CN5CCN(C)CC5)cc4c3)[nH]c12 [compound 465] | 0.4 | 6.6 | –
Cc1ccc(N2CCN(C)CC2)cc1NC(=O)c1cc2cccc(C)c2[nH]1 [compound 469] | 1.4 | 7.9 | –
Cc1cc(C(=O)NC2CCN(C)CC2)cnc1C(NC(=O)c1cc2cccc(C)c2[nH]1)C1CC1 (stereo not shown) [compound 470] | 0.6 | 8 | –
CCC(NC(=O)c1cc2cccc(C)c2[nH]1)c1ncccc1C (stereo not shown) [compound 471] | 5.4 | 8.5 | –
Cc1cc2ccccc2nc1C(NC(=O)c1cc2cccc(C)c2[nH]1)C1CC1 (stereo not shown) [compound 472] | 0.9 | – | 8.5

Second part, the compound after the results:

IC50 (SETD2(1434-1711)) [µM] | IC50 (H3K36me3 in A549 cells; Homo sapiens) [µM] | IC50 (H3K36me3 in A549 cells) [µM] | SMILES
0.1 | – | 3 | Cc1ccc(F)c2cc(C(=O)Nc3ccc4cnc(CN5CCN(C)CC5)cc4c3)[nH]c12 [compound 409]
0.7 | – | 3 | Cc1ccc(F)c2cc(C(=O)Nc3cncc(N4CCN(C)CC4)c3)[nH]c12 [compound 410]
0.8 | – | 3 | Cc1ccc(F)c2cc(C(=O)Nc3cccc(N4C5CCC4C(=O)N(C)C5)c3)[nH]c12 (stereo not shown) [compound 411]
0.03 | – | 3.1 | Cc1ccc(F)c2cc(C(=O)Nc3cccc(N4CCC(NCCN)CC4)c3)[nH]c12 [compound 413]
0.1 | 3.2 | – | Cc1ccc(F)c2cc(C(=O)Nc3cccc4c(N5CCC(N(C)C)CC5)[nH]nc34)[nH]c12 [compound 415]
0.04 | 3.3 | – | Cc1ccc(F)c2cc(C(=O)Nc3ccc4nc(NC5CCNCC5)ncc4c3)[nH]c12 [compound 416]
0.9 | – | 3.4 | Cc1ccc(F)c2cc(C(=O)Nc3cccc(N4CCN(C(C)c5ccccc5)CC4)c3)[nH]c12 (stereo not shown) [compound 417]
0.1 | – | 3.4 | Cc1ccc(F)c2cc(C(=O)Nc3cccc(CCN)c3)[nH]c12 [compound 418]
0.4 | – | 3.6 | Cc1ccc(F)c2cc(C(=O)Nc3cccc(CN4CCN(C)CC4)c3)[nH]c12 [compound 421]
1.5 | – | 3.7 | Cc1ccc(F)c2cc(C(=O)Nc3cccc(N4C5COCC4C5)c3)[nH]c12 [compound 422]
0.7 | – | 3.8 | Cc1ccc(F)c2cc(C(=O)NC(c3nn4ccccc4c3C)C3CC3)[nH]c12 (stereo not shown) [compound 424]
0.3 | – | 3.9 | Cc1ccc(F)c2cc(C(=O)Nc3cccc(C4CCCN4)c3)[nH]c12 (stereo not shown) [compound 425]
1 | 4.1 | – | Cc1ccc(F)c2cc(C(=O)Nc3cccc(-c4ncc[nH]4)c3)[nH]c12 [compound 428]
0.03 | 4.6 | – | Cc1ccc(F)c2cc(C(=O)Nc3cccc(N4CCC(NCc5cnc[nH]5)CC4)c3)[nH]c12 [compound 433]
0.3 | – | 4.7 | Cc1ccc(F)c2cc(C(=O)Nc3cccc(N4CC5CCC(C4)C5N(C)C)c3)[nH]c12 (stereo not shown) [compound 436]
0.6 | – | 4.8 | Cc1cccc2cc(C(=O)Nc3ccc4cnccc4c3)[nH]c12 [compound 437]
0.3 | 4.9 | – | Cc1ccc(F)c2cc(C(=O)Nc3cccc(C4CCCCN4)c3)[nH]c12 (stereo not shown) [compound 438]
0.4 | – | 5.2 | Cc1ccc(F)c2cc(C(=O)Nc3cccc(-c4cc(N)n[nH]4)c3)[nH]c12 [compound 444]
2.3 | 5.6 | – | Cc1ccnnc1C(NC(=O)c1cc2c(F)ccc(C)c2[nH]1)C1CC1 (stereo not shown) [compound 450]
0.06 | 5.7 | – | Cc1cccc2cc(C(=O)Nc3cccc(N4CCC(NCCN)CC4)c3)[nH]c12 [compound 452]
2.8 | 5.9 | – | Cc1ccc(F)c2cc(C(=O)Nc3cccc(S(N)(=O)=O)c3)[nH]c12 [compound 454]
2.2 | 6.2 | – | Cc1ccc(F)c2cc(C(=O)NC3C(=O)NCc4ccccc43)[nH]c12 (stereo not shown) [compound 458]
1.5 | – | 6.2 | Cc1cccc2cc(C(=O)Nc3ccc4nccn4c3)[nH]c12 [compound 459]
1.9 | – | 7 | Cc1cccc2cc(C(=O)Nc3ccc4cncnc4c3)[nH]c12 [compound 466]
0.4 | 7.3 | – | Cc1cccc2cc(C(=O)Nc3cccc(N4CCN(CCN)CC4)c3)[nH]c12 [compound 467]
0.9 | 7.5 | – | Cc1ccc(F)c2cc(C(=O)Nc3cccc(N4CCOCC4CN(C)C)c3)[nH]c12 (stereo not shown) [compound 468]
